Reference: PubChem BioAssay AID330 (DTP/NCI, 2004)
“And” between values parts separate entries of the source, which are not always exact repeats. Equal values may be shown once. Inconclusive results and toxic doses are left out.

Tested on: P388 leukemia ip, CD2F1 mice, survival T/C
Test: NCI In Vivo Anticancer Drug Screen. Data for tumor model P388 Leukemia (intraperitoneal) in CD2F1 (CDF1) mice
Conditions: endpoint: median survival time, higher = longer survival
Procedure, shortened: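 Mice carrying the transplanted tumor received test compound or vehicle. Survival was recorded in each group, and the value is the treated-group measurement divided by that of the vehicle-treated control group.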

[1] = dose: 50.0 mg/kg/injection, schedule: Q01DX005 (ip), vehicle: Klucel (hydroxypropylcellulose) (HPC)
[2] = dose: 100.0 mg/kg/injection, schedule: Q01DX005 (ip), vehicle: Klucel (hydroxypropylcellulose) (HPC)
[3] = dose: 200.0 mg/kg/injection, schedule: Q01DX005 (ip), vehicle: Klucel (hydroxypropylcellulose) (HPC)
[4] = dose: 50.0 mg/kg/injection, schedule: Q01DX009 (ip), vehicle: Klucel (hydroxypropylcellulose) (HPC)
[5] = dose: 100.0 mg/kg/injection, schedule: Q01DX009 (ip), vehicle: Klucel (hydroxypropylcellulose) (HPC)
[6] = dose: 200.0 mg/kg/injection, schedule: Q01DX009 (ip), vehicle: Klucel (hydroxypropylcellulose) (HPC)
[7] = dose: 50.0 mg/kg/injection, schedule: Q01DX009 (ip), vehicle: saline with Tween-80
[8] = dose: 100.0 mg/kg/injection, schedule: Q01DX009 (ip), vehicle: saline with Tween-80
[9] = dose: 200.0 mg/kg/injection, schedule: Q01DX009 (ip), vehicle: saline with Tween-80
[10] = dose: 100.0 mg/kg/injection, schedule: Q04DX003 (ip), vehicle: saline with Tween-80
[11] = dose: 200.0 mg/kg/injection, schedule: Q04DX003 (ip), vehicle: saline with Tween-80
[12] = dose: 50.0 mg/kg/injection, schedule: Q01DX009 (ip), vehicle: saline
[13] = dose: 100.0 mg/kg/injection, schedule: Q01DX009 (ip), vehicle: saline
[14] = dose: 60.0 mg/kg/injection, schedule: Q01DX005 (ip), vehicle: saline with Tween-80
[15] = dose: 120.0 mg/kg/injection, schedule: Q01DX005 (ip), vehicle: saline with Tween-80
[16] = dose: 5.0 mg/kg/injection, schedule: Q01DX009 (ip), vehicle: saline with Tween-80
[17] = dose: 10.0 mg/kg/injection, schedule: Q01DX009 (ip), vehicle: saline with Tween-80
[18] = dose: 20.0 mg/kg/injection, schedule: Q01DX009 (ip), vehicle: saline with Tween-80
[19] = dose: 12.5 mg/kg/injection, schedule: Q01DX009 (ip), vehicle: saline with Tween-80
[20] = dose: 12.5 mg/kg/injection, schedule: Q01DX009 (ip), vehicle: saline
[21] = dose: 25.0 mg/kg/injection, schedule: Q01DX009 (ip), vehicle: saline

CC(=O)c1c(-c2ccc(-c3c[nH]c(C)c3C(C)=O)cc2)c[nH]c1C
T/C (dose: 100.0 mg/kg/injection, schedule: Q04DX002 (ip), vehicle: saline with Tween-80): 95 % of control | T/C (dose: 200.0 mg/kg/injection, schedule: Q04DX002 (ip), vehicle: saline with Tween-80): 91 % of control | T/C (dose: 400.0 mg/kg/injection, schedule: Q04DX002 (ip), vehicle: saline with Tween-80): 91 % of control

CN1CCc2c3c(c4c(c21)CCN4C)CCc1ccccc1-3
T/C [1]: 104 % of control | T/C [2]: 101 % of control | T/C [3]: 96 % of control

CCOC(=O)Cc1ccc(-c2csc(Nc3ccccc3)n2)cc1
T/C [4]: 106 % of control | T/C [5]: 98 % of control | T/C [6]: 98 % of control

Nc1ccc(Br)cc1[N+](=O)[O-]
T/C [7]: 101 % of control | T/C [8]: 107 % of control | T/C [9]: 100 % of control | T/C (dose: 400.0 mg/kg/injection, schedule: Q01DX009 (ip), vehicle: saline with Tween-80): 117 % of control

Nc1cc(S(=O)(=O)F)ccc1Cl
T/C [10]: 100 % of control | T/C [11]: 106 % of control

O=[N+]([O-])c1ccc(Nc2ccc[n+]3c([O-])csc23)nc1
T/C [12]: 98 % of control | T/C [8]: 89 % of control | T/C [13]: 102 % of control | T/C [9]: 93 % of control

CC(C)C(NC(=O)C(Cl)Cl)C(=O)O (centres undefined)
T/C [1]: 96 % of control | T/C [2]: 94 % of control | T/C [3]: 96 % of control

O=c1oc(-c2ccc(Cl)cc2Cl)nc2cc(Cl)ccc12
T/C [14]: 104 % of control | T/C [15]: 112 % of control

O=c1ccn(C2CCCCC2)c(=O)[nH]1
T/C (dose: 6.25 mg/kg/injection, schedule: Q01DX005 (ip), vehicle: Klucel (hydroxypropylcellulose) (HPC)): 99 % of control | T/C (dose: 12.5 mg/kg/injection, schedule: Q01DX005 (ip), vehicle: Klucel (hydroxypropylcellulose) (HPC)): 95 % of control | T/C (dose: 25.0 mg/kg/injection, schedule: Q01DX005 (ip), vehicle: Klucel (hydroxypropylcellulose) (HPC)): 91 % of control

O=C(O)C1=COC(OC2OC(CO)C(O)C(O)C2O)C2C(CO)=CCC12 (centres undefined)
T/C [16]: 99 % of control and 108 % of control | T/C [17]: 108 % of control and 96 % of control | T/C [18]: 99 % of control and 104 % of control | T/C (dose: 40.0 mg/kg/injection, schedule: Q01DX009 (ip), vehicle: saline with Tween-80): 95 % of control | T/C (dose: 80.0 mg/kg/injection, schedule: Q01DX009 (ip), vehicle: saline with Tween-80): 99 % of control

CC1(C)N=C(N)N=C(N)N1c1cccc(CCCCOc2ccccc2)c1
T/C (dose: 3.13 mg/kg/injection, schedule: Q01DX009 (ip), vehicle: saline with Tween-80): 150 % of control | T/C (dose: 6.25 mg/kg/injection, schedule: Q01DX009 (ip), vehicle: saline with Tween-80): 150 % of control | T/C (dose: 6.25 mg/kg/injection, schedule: Q04DX003 (ip), vehicle: saline with Tween-80): 113 % of control | T/C [19]: 154 % of control | T/C (dose: 12.5 mg/kg/injection, schedule: Q04DX003 (ip), vehicle: saline with Tween-80): 109 % of control | T/C (dose: 18.0 mg/kg/injection, schedule: Q01DX009 (ip), vehicle: saline with Tween-80): 95 % of control

COC(=O)CC(OC1CC(N)C(O)C(C)O1)c1c(O)c2c(c(O)c1CO)C(=O)c1cccc(OC)c1C2=O (centres undefined)
T/C (dose: 100.0 mg/kg/injection, schedule: Q04DX003 (ip), vehicle: water): 105 % of control | T/C (dose: 200.0 mg/kg/injection, schedule: Q04DX003 (ip), vehicle: water): 121 % of control

Cc1cc2c(cc1C)C(=O)c1cc3c(cc1C2=O)OCO3
T/C [14]: 94 % of control | T/C [15]: 91 % of control | T/C (dose: 240.0 mg/kg/injection, schedule: Q01DX005 (ip), vehicle: saline with Tween-80): 89 % of control

Cc1ccc(C)c([N+](=O)[O-])c1C(=O)O
T/C (dose: 100.0 mg/kg/injection, schedule: Q04DX003 (ip), vehicle: saline + alcohol): 98 % of control | T/C (dose: 200.0 mg/kg/injection, schedule: Q04DX003 (ip), vehicle: saline + alcohol): 98 % of control

C=C1C(=O)OC2C1C(OC(=O)/C(C)=C\C)CC(C)=C1C(=O)C3OC3(C)C12O (centres undefined)
T/C (dose: 12.5 mg/kg/injection, schedule: Q01DX005 (ip), vehicle: saline + alcohol): 115 % of control | T/C (dose: 25.0 mg/kg/injection, schedule: Q01DX005 (ip), vehicle: saline + alcohol): 116 % of control | T/C (dose: 50.0 mg/kg/injection, schedule: Q01DX005 (ip), vehicle: saline + alcohol): 115 % of control

CCCC(O)CNCc1ccnc2ccc(OC)cc12 (centres undefined)
T/C (dose: 50.0 mg/kg/injection, schedule: Q01DX005 (ip), vehicle: saline): 109 % of control | T/C (dose: 100.0 mg/kg/injection, schedule: Q01DX005 (ip), vehicle: saline): 98 % of control

CNC(=O)CC(N)C(=O)O (centres undefined)
T/C [20]: 96 % of control | T/C [21]: 94 % of control | T/C [12]: 101 % of control | T/C (dose: 50.0 mg/kg/injection, schedule: Q01DX009 (ip), vehicle: water): 105 % of control | T/C [13]: 98 % of control | T/C (dose: 100.0 mg/kg/injection, schedule: Q01DX009 (ip), vehicle: water): 105 % of control | T/C (dose: 200.0 mg/kg/injection, schedule: Q01DX009 (ip), vehicle: saline): 113 % of control | T/C (dose: 200.0 mg/kg/injection, schedule: Q01DX009 (ip), vehicle: water): 109 % of control

S=C1NC2(CCCCC2)NC12CCCCC2
T/C [4]: 86 % of control | T/C [5]: 93 % of control | T/C [6]: 98 % of control | T/C (dose: 400.0 mg/kg/injection, schedule: Q01DX009 (ip), vehicle: Klucel (hydroxypropylcellulose) (HPC)): 93 % of control

O=C(NC(=S)c1ccc(Cl)cc1)Nc1ccc(Cl)c(Cl)c1
T/C [16]: 87 % of control | T/C [17]: 96 % of control | T/C [18]: 100 % of control

COc1ccc(C(CC(=O)O)CC(=O)c2ccc(N(CCCl)CCCl)cc2)cc1 (centres undefined)
T/C (dose: 100.0 mg/kg/injection, schedule: Q01DX001 (ip), vehicle: suspension in saline): 98 % of control | T/C (dose: 200.0 mg/kg/injection, schedule: Q01DX001 (ip), vehicle: suspension in saline): 99 % of control

NC(CSc1nc2ccccn2c1[N+](=O)[O-])C(=O)O (centres undefined)
T/C (dose: 12.5 mg/kg/injection, schedule: Q01DX009 (ip), vehicle: Klucel (hydroxypropylcellulose) (HPC)): 98 % of control | T/C (dose: 25.0 mg/kg/injection, schedule: Q01DX009 (ip), vehicle: Klucel (hydroxypropylcellulose) (HPC)): 100 % of control | T/C [4]: 99 % of control and 100 % of control

O=c1[nH]cnc2cc(NCc3ccccc3)c([N+](=O)[O-])cc12
T/C (dose: 100.0 mg/kg/injection, schedule: Q04DX003 (ip), vehicle: Klucel (hydroxypropylcellulose) (HPC)): 100 % of control | T/C (dose: 200.0 mg/kg/injection, schedule: Q04DX003 (ip), vehicle: Klucel (hydroxypropylcellulose) (HPC)): 96 % of control | T/C (dose: 400.0 mg/kg/injection, schedule: Q04DX003 (ip), vehicle: Klucel (hydroxypropylcellulose) (HPC)): 94 % of control

Nc1c(Cl)cc(Cl)cc1Cl
T/C (dose: 100.0 mg/kg/injection, schedule: Q04DX003 (ip), vehicle: alcohol): 108 % of control | T/C (dose: 200.0 mg/kg/injection, schedule: Q04DX003 (ip), vehicle: alcohol): 100 % of control | T/C (dose: 400.0 mg/kg/injection, schedule: Q04DX003 (ip), vehicle: alcohol): 100 % of control

CCCC(=O)Nc1nc2ccc([N+](=O)[O-])cc2s1
T/C [19]: 106 % of control | T/C [20]: 97 % of control | T/C (dose: 25.0 mg/kg/injection, schedule: Q01DX009 (ip), vehicle: saline with Tween-80): 97 % of control | T/C [21]: 98 % of control | T/C [7]: 99 % of control and 123 % of control | T/C [12]: 98 % of control | T/C [8]: 110 % of control and 96 % of control | T/C [13]: 101 % of control | T/C [9]: 108 % of control

Cc1ccccc1-n1c(C)nc2[nH]ncc2c1=O
T/C [1]: 105 % of control | T/C [2]: 98 % of control | T/C [3]: 96 % of control

CC(=O)/C=C/c1ccc(O)cc1
T/C [7]: 110 % of control | T/C [8]: 98 % of control | T/C [10]: 105 % of control | T/C [9]: 100 % of control | T/C [11]: 113 % of control | T/C (dose: 400.0 mg/kg/injection, schedule: Q04DX003 (ip), vehicle: saline with Tween-80): 105 % of control
